14 molecules from US12600726B2, “Antagonists of the muscarinic acetylcholine receptor M4” (Vanderbilt University, priority 2017, dated 2026) can be followed below.

By IC50 is commonly meant the concentration that gives 50% inhibition.

The target in assay [1] is T1, Human M4 (Homo sapiens, UniProt P08173).
T1 construct: expressed in transfected cells; host or cells: CHO-K1 (ATCC), stably expressing M4 and Gqi5
T1 sequence (P08173 1-479): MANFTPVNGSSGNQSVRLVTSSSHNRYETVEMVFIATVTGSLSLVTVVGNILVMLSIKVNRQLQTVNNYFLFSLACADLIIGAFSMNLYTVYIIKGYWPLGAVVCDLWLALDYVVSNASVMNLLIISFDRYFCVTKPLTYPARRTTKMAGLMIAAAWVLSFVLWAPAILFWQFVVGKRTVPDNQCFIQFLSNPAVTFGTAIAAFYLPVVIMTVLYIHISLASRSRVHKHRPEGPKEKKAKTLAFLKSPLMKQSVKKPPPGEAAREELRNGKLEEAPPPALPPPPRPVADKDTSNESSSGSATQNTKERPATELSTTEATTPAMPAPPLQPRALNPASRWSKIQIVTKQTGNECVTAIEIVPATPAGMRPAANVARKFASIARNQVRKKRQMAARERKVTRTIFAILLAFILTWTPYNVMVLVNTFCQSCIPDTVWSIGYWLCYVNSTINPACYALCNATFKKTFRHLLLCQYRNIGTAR
Kind of assay: mAChR M4 cell-based functional calcium flux assay (human M4/Gqi5/CHO cells). The conditions noted are these: for Emin (human M4): % ACh maximum at 30 μM; for IC50: decrease of the response to an EC80 concentration of acetylcholine. In a few lines:
(§1)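 CHO-K1 cells stably co-expressing M4 of the given species with chimeric Gqi5 were loaded with Fluo-4 AM and read for calcium flux. Compounds (10-point, 1:3 dilutions) were added first, followed by an acetylcholine EC20 at 143 s and an EC80 at 268 s. IC50 reflects the concentration-dependent fall in the EC80 response, fitted with a four-parameter logistic.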
For orientation: Calcium flux is commonly read through the fluorescence of an indicator in the cells.

The target of assay [2] is T2, Rat M4 (Rattus norvegicus, UniProt P08485).
T2 construct: expressed in transfected cells; host or cells: CHO-K1 (ATCC), stably expressing M4 and Gqi5
T2 sequence (P08485 1-478): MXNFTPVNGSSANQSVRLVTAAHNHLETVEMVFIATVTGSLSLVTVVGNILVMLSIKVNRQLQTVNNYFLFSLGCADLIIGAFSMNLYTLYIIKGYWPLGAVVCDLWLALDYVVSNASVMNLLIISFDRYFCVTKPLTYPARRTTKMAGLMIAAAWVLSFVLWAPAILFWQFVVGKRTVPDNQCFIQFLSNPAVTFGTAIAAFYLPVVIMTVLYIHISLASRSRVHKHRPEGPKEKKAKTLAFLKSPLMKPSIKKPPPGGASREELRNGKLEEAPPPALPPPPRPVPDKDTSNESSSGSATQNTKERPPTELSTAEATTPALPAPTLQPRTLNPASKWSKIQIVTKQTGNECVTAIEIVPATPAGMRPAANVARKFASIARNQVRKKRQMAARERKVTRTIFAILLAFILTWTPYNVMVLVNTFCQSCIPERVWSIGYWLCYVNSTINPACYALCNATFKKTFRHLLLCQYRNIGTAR
Kind of assay: mAChR M4 cell-based functional calcium flux assay (rat M4/Gqi5/CHO cells). The conditions noted are these: for Emin (rat M4): % ACh maximum at 30 μM. The gist of the method: as §1

The mark [3] stands for this setting: decrease of the response to an EC80 concentration of acetylcholine.

The structures appear in SMILES notation.

As to `Fc1ccc(Cl)c(-c2ccc(NC[C@@H]3CC34CCN(CC3CC5CCC3O5)CC4)nn2)c1` (stereo partly drawn) [Compound 110, N-(((1R)-6-((7-oxabicyclo[2.2.1]heptan-2-yl)methyl)-6-azaspiro[2.5]octan-1-yl)methyl)-6-(2-chloro-5-fluorophenyl)pyridazin-3-amine], in assay [1], the “Emin (human M4)” value amounted to 3%. For the same molecule, the IC50 amounted to 2.29 nM in assay [1] and 0.0392 µM in assay [2] (setting [3]). The “Emin (rat M4)” value in assay [2] amounted to 4%.

As to `CC(=O)Nc1ccc(-c2ccc(NC[C@@H]3CC34CCN(CCC(C)(C)C)CC4)nn2)cc1` [Compound 111, N-[4-[6-[[(2R)-6-(3,3-dimethylbutyl)-6-azaspiro[2.5]octan-2-yl]methylamino]pyridazin-3-yl]phenyl]acetamide], in assay [1], the “Emin (human M4)” value turned out to be 6%. Further, the IC50 in assay [1] was 2.04 nM; in assay [2] (setting [3]), 0.00753 µM. In addition, in assay [2], the “Emin (rat M4)” value amounted to 4%.

For the molecule `Cc1cccnc1CN1CCC2(CC1)C[C@H]2CNc1ccc(-c2cc(F)ccc2Cl)nn1` [Compound 114, 6-(2-chloro-5-fluoro-phenyl)-N-[[(2R)-6-[(3-methyl-2-pyridyl)methyl]-6-azaspiro[2.5]octan-2-yl]methyl]pyridazin-3-amine], in assay [1], the “Emin (human M4)” value was 2% and the IC50 worked out at 25.7 nM. Also, the “Emin (rat M4)” value in assay [2] is on record as 5%. Also, in assay [2] (setting [3]), the IC50 came to 0.223 µM.

Regarding `Fc1ccc(Cl)c(-c2ccc(NC[C@@H]3CC34CCN(CC35CC6CC(CC(C6)C3)C5)CC4)nn2)c1` [Compound 115, N-[[(2R)-6-(1-adamantylmethyl)-6-azaspiro[2.5]octan-2-yl]methyl]-6-(2-chloro-5-fluoro-phenyl)pyridazin-3-amine], in assay [1], the “Emin (human M4)” value is recorded as 2% and the IC50 was 69.8 nM. For the same molecule, the “Emin (rat M4)” value in assay [2] is recorded as 3%. Besides, the IC50 in assay [2] (setting [3]) turned out to be 0.152 µM.

As to `CC(=O)Nc1ccc(-c2nnc(NCC3CC34CCN(CCC(C)(C)C)CC4)c(C)c2C)cc1` (centres unmarked) [Compound 116, N-[4-[6-[[6-(3,3-dimethylbutyl)-6-azaspiro[2.5]octan-2-yl]methylamino]-4,5-dimethyl-pyridazin-3-yl]phenyl]acetamide], the “Emin (human M4)” value in assay [1] is given as 5%. Besides, the values for the IC50 in assay [1] and in assay [2] (setting [3]) were 11.9 nM and 0.015 µM, respectively. Also, in assay [2], the “Emin (rat M4)” value is 4%.

On to `CC(=O)Nc1ccc(-c2nnc(NCC3CC34CCN(CC3CCCCC3)CC4)c(C)c2C)cc1` (centres unmarked) [Compound 117, N-[4-[6-[[6-(cyclohexylmethyl)-6-azaspiro[2.5]octan-2-yl]methylamino]-4,5-dimethyl-pyridazin-3-yl]phenyl]acetamide], for which, in assay [1], the “Emin (human M4)” value came out at 5%. For the same molecule, the IC50 amounted to 19.7 nM in assay [1] and 0.0137 µM in assay [2] (setting [3]). In addition, the “Emin (rat M4)” value in assay [2] is listed as 4%.

Turning to `CC(=O)Nc1ccc(-c2ccc(NC[C@@H]3CC34CCN(CC3CCCCC3)CC4)nn2)cc1` [Compound 118, N-[4-[6-[[(2R)-6-(cyclohexylmethyl)-6-azaspiro[2.5]octan-2-yl]methylamino]pyridazin-3-yl]phenyl]acetamide], in assay [1], the “Emin (human M4)” value is reported as 4% and the IC50 was determined as 5.85 nM. The “Emin (rat M4)” value in assay [2] is 5%. In assay [2] (setting [3]), the IC50 stood at 0.0167 µM.

With `CC(=O)Nc1ccc(-c2ccc(NC[C@@H]3CC34CCN(CC3CCCCCC3)CC4)nn2)cc1` [Compound 119, N-[4-[6-[[(2R)-6-(cycloheptylmethyl)-6-azaspiro[2.5]octan-2-yl]methylamino]pyridazin-3-yl]phenyl]acetamide], the “Emin (human M4)” value in assay [1] was found to be 3%. In addition, the IC50 stood at 8.18 nM in assay [1] and 0.0165 µM in assay [2] (setting [3]). For the same molecule, the “Emin (rat M4)” value in assay [2] was found to be 5%.

As to `CC(=O)Nc1ccc(-c2ccc(NC[C@@H]3CC34CCN(CC35CC6CC(CC(C6)C3)C5)CC4)nn2)cc1` [Compound 120, N-[4-[6-[[(2R)-6-(1-adamantylmethyl)-6-azaspiro[2.5]octan-2-yl]methylamino]pyridazin-3-yl]phenyl]acetamide], in assay [1], the “Emin (human M4)” value came to 4% and the IC50 came out at 28.7 nM. For the same molecule, the “Emin (rat M4)” value in assay [2] came to 3%. For the same molecule, in assay [2] (setting [3]), the IC50 worked out at 0.0357 µM.

In the case of `CC(=O)Nc1ccc(-c2ccc(NC[C@@H]3CC34CCN(CC3CCOCC3)CC4)nn2)cc1` [Compound 121, N-[4-[6-[[(2R)-6-(tetrahydropyran-4-ylmethyl)-6-azaspiro[2.5]octan-2-yl]methylamino]pyridazin-3-yl]phenyl]acetamide], in assay [1], the “Emin (human M4)” value is reported as 3% and the IC50 came to 68.2 nM. Also, the “Emin (rat M4)” value in assay [2] came to 9%. In addition, the IC50 in assay [2] (setting [3]) was 0.0437 µM.

For the molecule `CC(=O)Nc1ccc(-c2ccc(NC[C@@H]3CC34CCN(Cc3ncccc3C)CC4)nn2)cc1` [Compound 122, N-[4-[6-[[(2R)-6-[(3-methyl-2-pyridyl)methyl]-6-azaspiro[2.5]octan-2-yl]methylamino]pyridazin-3-yl]phenyl]acetamide], in assay [1], the “Emin (human M4)” value came out at 12% and the IC50 was determined as 1410 nM. Besides, the “Emin (rat M4)” value in assay [2] stood at 12%. For the same molecule, the IC50 in assay [2] (setting [3]) was 0.32 µM.

As to `CC(=O)Nc1ccc(-c2ccc(NC[C@@H]3CC34CCN(Cc3ccc(F)cc3)CC4)nn2)cc1` [Compound 123, N-[4-[6-[[(2R)-6-[(4-fluorophenyl)methyl]-6-azaspiro[2.5]octan-2-yl]methylamino]pyridazin-3-yl]phenyl]acetamide], in assay [1], the “Emin (human M4)” value turned out to be 5% and the IC50 was 575 nM. For the same molecule, in assay [2], the “Emin (rat M4)” value came to 4%. Moreover, the IC50 in assay [2] (setting [3]) turned out to be 0.207 µM.

Consider `CC(=O)Nc1ccc(-c2ccc(NC[C@H]3CC34CCN(CCC(C)(C)C)CC4)nn2)cc1` [Compound 124, N-[4-[6-[[(2S)-6-(3,3-dimethylbutyl)-6-azaspiro[2.5]octan-2-yl]methylamino]pyridazin-3-yl]phenyl]acetamide], for which the “Emin (human M4)” value in assay [1] was determined as 4%. The IC50 in assay [1] worked out at 34.3 nM; in assay [2] (setting [3]), 0.0563 µM. Besides, in assay [2], the “Emin (rat M4)” value amounted to 4%.

As to `CC(=O)Nc1ccc(-c2ccc(NC[C@H]3CC34CCN(CC3CCOCC3)CC4)nn2)cc1` [Compound 126, N-[4-[6-[[(2S)-6-(tetrahydropyran-4-ylmethyl)-6-azaspiro[2.5]octan-2-yl]methylamino]pyridazin-3-yl]phenyl]acetamide], the “Emin (human M4)” value in assay [1] is on record as 14%. Also, the half-maximal inhibitory concentration (IC50) was 1810 nM in assay [1] and at least 10 µM in assay [2] (cells printed in μM, decrease of the EC80 acetylcholine response). Further, in assay [2], the “Emin (rat M4)” value stood at 28%.
